# Measurements published in patent US9050341B2, “Methods of treating drug resistant and other tumors by administering 6,7-dialkoxy quinazoline derivatives” (NATCO PHARMA LIMITED, priority 2009, dated 2015).
# Key:
# Assay in all cases: KinomeScan kinase profiling
# Type in all cases: binding
# ABL1 (H396P) = target: T1, ABL1 (H396P) (Homo sapiens, UniProt P00519, H396P)
# T1 construct: host or cells: E. coli host derived from BL21 (T7 phage lysate)
# In short: (§1)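 Kinases were expressed as T7 phage fusions in a BL21-derived E. coli host and the cleared lysates were used. Ligand beads were blocked with biotin and buffer (1% BSA, 0.05% Tween 20, 1 mM DTT). Compounds came from 40× DMSO stocks, and phage in the eluates was titred by qPCR.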
# ABL1 = target: T2, ABL1 (Homo sapiens, UniProt P00519)
# T2 construct: host or cells: E. coli host derived from BL21 (T7 phage lysate)
# In short: as §1
# CAMKK2 = target: T3, CAMKK2 (Homo sapiens, UniProt Q96RR4)
# T3 construct: host or cells: T7 phage in E. coli (BL21-derived)
# In short: as §1
# CLK1 = target: T4, CLK1 (Homo sapiens, UniProt P49759)
# T4 construct: host or cells: T7 phage in E. coli (BL21-derived)
# In short: as §1
# CSF1R = target: T5, CSF1R (Homo sapiens, UniProt P07333)
# T5 construct: host or cells: T7 phage in E. coli (BL21-derived)
# In short: as §1
# CSNK2A2 = target: T6, CSNK2A2 (Homo sapiens, UniProt P19784)
# T6 construct: purchased Ambit Biosciences Corp (KinomeScan); host or cells: T7 phage in E. coli host derived from BL21
# T6 sequence (P19784 whole entry): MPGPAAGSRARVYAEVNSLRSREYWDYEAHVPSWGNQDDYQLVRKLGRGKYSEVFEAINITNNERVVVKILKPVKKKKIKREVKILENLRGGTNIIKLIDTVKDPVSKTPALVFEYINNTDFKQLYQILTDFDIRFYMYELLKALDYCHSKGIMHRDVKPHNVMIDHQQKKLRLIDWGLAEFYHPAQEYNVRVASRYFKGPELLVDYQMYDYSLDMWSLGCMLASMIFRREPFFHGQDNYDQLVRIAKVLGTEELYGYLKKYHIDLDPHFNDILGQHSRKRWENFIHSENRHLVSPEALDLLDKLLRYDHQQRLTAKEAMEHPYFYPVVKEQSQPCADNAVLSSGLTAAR
# In short: as §1
# EPHB4 = target: T7, EPHB4 (Homo sapiens, UniProt P54760)
# T7 construct: host or cells: E. coli host derived from BL21, T7 phage lysate
# In short: as §1
# IGF1R = target: T8, IGF1R (Homo sapiens, UniProt P08069)
# T8 construct: host or cells: T7 phage in E. coli host derived from BL21
# In short: as §1
# [1] = target: T9, JAK1 (JH2domain-pseudokinase) (Homo sapiens, UniProt P23458)
# T9 construct: JAK1 (JH2domain-pseudokinase); host or cells: T7 phage in E. coli host derived from BL21
# T9 sequence (P23458 583-855 limits assumed): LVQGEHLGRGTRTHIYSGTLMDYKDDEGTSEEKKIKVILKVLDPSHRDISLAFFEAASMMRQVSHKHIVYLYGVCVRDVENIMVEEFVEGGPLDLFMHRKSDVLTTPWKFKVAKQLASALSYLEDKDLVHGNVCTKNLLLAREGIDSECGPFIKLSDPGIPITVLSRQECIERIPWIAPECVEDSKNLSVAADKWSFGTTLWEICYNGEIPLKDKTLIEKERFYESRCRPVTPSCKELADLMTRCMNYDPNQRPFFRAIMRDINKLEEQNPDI
# In short: as §1
# JNK3 = target: T10, JNK3 (Homo sapiens, UniProt P53779)
# T10 construct: host or cells: T7 phage in E. coli host derived from BL21
# In short: as §1
# MAP4K3 = target: T11, MAP4K3 (Homo sapiens, UniProt Q8IVH8)
# T11 construct: host or cells: E. coli derived from BL21, infected with T7 phage
# In short: as §1
# MELK = target: T12, MELK (Homo sapiens, UniProt Q14680)
# T12 construct: host or cells: E. coli derived from BL21, infected with T7 phage
# In short: as §1
# MET = target: T13, MET (Homo sapiens, UniProt P08581)
# T13 construct: host or cells: E. coli derived from BL21, infected with T7 phage
# In short: as §1
# MST3 = target: T14, MST3 (Homo sapiens, UniProt Q9Y6E0)
# T14 construct: host or cells: T7 phage in E. coli host derived from BL21
# T14 sequence (Q9Y6E0 whole entry): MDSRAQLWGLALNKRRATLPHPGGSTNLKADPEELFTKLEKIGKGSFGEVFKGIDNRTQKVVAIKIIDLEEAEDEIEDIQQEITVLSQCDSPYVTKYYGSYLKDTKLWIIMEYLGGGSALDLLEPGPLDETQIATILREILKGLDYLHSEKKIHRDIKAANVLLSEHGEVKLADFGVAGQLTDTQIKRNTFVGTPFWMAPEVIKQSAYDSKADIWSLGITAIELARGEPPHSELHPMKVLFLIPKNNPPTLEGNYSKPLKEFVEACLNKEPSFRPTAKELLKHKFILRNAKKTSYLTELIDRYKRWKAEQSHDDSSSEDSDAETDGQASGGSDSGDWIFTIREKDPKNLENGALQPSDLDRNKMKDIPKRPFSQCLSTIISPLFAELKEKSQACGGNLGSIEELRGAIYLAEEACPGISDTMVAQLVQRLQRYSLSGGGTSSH
# In short: as §1
# PLK3 = target: T15, PLK3 (Homo sapiens, UniProt Q9H4B4)
# T15 construct: purchased Ambit Biosciences Corp (KinomeScan); host or cells: E. coli host derived from BL21, infected with T7 phage
# T15 sequence (Q9H4B4 whole entry): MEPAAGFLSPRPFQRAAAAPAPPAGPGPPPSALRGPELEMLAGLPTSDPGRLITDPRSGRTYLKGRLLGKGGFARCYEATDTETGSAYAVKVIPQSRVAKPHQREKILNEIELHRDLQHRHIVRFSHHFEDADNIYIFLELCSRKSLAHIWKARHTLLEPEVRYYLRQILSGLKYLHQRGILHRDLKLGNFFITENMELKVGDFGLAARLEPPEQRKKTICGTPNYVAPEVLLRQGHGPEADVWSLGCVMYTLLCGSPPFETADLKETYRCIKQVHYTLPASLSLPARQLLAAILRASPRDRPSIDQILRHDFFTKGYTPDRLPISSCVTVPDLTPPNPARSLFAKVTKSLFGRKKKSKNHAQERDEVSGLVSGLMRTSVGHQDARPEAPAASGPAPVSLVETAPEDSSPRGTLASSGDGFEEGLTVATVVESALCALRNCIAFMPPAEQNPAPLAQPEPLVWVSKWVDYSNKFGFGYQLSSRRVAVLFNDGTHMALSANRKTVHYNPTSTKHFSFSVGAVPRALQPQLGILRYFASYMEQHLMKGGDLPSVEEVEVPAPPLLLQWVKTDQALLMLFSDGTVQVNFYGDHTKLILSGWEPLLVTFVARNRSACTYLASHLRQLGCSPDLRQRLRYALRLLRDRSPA
# In short: as §1
# PRKCH = target: T16, PRKCH (Homo sapiens, UniProt P24723)
# T16 construct: purchased Ambit Biosciences Corp (KinomeScan); host or cells: E. coli host derived from BL21, infected with T7 phage
# In short: as §1
# PRKD3 = target: T17, PRKD3 (Homo sapiens, UniProt O94806)
# T17 construct: purchased Ambit Biosciences Corp (KinomeScan); host or cells: E. coli host derived from BL21, infected with T7 phage
# T17 sequence (O94806 whole entry): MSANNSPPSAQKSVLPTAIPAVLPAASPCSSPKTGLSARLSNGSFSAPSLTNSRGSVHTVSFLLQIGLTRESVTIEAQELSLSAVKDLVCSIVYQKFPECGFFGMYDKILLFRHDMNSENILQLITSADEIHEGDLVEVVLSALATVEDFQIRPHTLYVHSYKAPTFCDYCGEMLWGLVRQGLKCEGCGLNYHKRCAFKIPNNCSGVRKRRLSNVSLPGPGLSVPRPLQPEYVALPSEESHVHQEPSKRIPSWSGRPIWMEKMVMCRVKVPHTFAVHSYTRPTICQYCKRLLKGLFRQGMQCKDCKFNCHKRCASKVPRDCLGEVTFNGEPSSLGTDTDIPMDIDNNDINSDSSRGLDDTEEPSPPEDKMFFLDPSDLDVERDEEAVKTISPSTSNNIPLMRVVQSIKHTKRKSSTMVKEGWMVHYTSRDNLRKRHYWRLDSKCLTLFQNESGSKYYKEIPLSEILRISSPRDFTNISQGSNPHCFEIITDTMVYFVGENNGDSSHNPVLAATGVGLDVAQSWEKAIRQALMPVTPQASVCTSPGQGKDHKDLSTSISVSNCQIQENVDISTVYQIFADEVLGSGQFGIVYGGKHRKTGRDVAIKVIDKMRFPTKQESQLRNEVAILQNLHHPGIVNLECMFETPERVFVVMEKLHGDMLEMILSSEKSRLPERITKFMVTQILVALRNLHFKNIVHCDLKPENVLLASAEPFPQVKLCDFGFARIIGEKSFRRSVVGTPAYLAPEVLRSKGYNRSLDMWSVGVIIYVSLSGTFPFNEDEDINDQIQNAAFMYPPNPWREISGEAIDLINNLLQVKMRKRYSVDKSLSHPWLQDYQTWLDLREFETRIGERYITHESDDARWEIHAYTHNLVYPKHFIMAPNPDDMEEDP
# In short: as §1
# RET = target: T18, RET (Homo sapiens, UniProt P07949)
# T18 construct: host or cells: E. coli host derived from BL21, T7 phage lysate
# In short: as §1
# RIPK2 = target: T19, RIPK2 (Homo sapiens, UniProt O43353)
# T19 construct: host or cells: E. coli host derived from BL21, T7 phage lysate
# In short: as §1
# TIE2 = target: T20, TIE2 (Homo sapiens, UniProt Q02763)
# T20 construct: purchased Ambit Biosciences Corp (KinomeScan); host or cells: E. coli host derived from the BL21 strain (T7 phage lysate)
# In short: as §1
# TNIK = target: T21, TNIK (Homo sapiens, UniProt Q9UKE5)
# T21 construct: purchased Ambit Biosciences Corp (KinomeScan); host or cells: E. coli host derived from the BL21 strain (T7 phage lysate)
# T21 sequence (Q9UKE5 whole entry): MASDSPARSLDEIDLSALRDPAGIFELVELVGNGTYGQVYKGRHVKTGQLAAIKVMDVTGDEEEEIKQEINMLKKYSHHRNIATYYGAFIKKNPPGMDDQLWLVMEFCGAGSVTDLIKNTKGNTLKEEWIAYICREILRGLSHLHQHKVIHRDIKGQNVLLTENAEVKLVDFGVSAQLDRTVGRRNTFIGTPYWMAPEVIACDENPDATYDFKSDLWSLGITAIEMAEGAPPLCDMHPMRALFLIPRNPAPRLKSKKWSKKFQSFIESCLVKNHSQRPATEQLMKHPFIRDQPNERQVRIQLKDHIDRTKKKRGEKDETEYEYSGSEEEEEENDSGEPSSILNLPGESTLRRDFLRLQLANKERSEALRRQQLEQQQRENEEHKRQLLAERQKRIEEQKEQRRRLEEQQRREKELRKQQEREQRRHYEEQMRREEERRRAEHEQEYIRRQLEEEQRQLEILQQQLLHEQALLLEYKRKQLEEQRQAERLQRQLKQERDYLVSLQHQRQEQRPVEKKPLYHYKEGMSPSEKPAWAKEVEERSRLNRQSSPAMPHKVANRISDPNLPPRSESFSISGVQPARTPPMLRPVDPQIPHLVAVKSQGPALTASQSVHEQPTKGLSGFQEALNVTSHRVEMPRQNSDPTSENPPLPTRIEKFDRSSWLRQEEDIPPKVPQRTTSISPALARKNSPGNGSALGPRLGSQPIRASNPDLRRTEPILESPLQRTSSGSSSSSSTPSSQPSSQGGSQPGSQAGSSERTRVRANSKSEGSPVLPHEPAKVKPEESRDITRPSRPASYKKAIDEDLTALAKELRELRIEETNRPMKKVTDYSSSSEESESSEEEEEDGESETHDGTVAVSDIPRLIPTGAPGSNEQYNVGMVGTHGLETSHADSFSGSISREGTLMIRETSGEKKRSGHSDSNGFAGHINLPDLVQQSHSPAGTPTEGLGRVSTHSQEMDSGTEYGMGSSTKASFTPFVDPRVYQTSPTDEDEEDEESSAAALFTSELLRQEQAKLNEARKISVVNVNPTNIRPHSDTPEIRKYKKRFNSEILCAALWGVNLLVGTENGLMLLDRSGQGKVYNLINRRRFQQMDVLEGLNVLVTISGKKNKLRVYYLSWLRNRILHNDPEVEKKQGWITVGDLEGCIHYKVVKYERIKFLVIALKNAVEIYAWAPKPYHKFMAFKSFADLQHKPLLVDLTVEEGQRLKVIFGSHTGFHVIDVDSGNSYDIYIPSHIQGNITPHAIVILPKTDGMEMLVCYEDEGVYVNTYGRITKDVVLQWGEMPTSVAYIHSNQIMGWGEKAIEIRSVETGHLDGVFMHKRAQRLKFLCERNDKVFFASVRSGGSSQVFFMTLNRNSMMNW
# In short: as §1
# TRKB = target: T22, TRKB (Homo sapiens, UniProt Q16620)
# T22 construct: purchased Ambit Biosciences Corp (KinomeScan); host or cells: E. coli host derived from the BL21 strain (T7 phage lysate)
# In short: as §1
# TSSK1B = target: T23, TSSK1B (Homo sapiens, UniProt Q9BXA7)
# T23 construct: purchased Ambit Biosciences Corp (KinomeScan); host or cells: E. coli host derived from the BL21 strain (T7 phage lysate)
# In short: as §1
# TYRO3 = target: T24, TYRO3 (Homo sapiens, UniProt Q06418)
# T24 construct: purchased Ambit Biosciences Corp (KinomeScan); host or cells: E. coli host derived from the BL21 strain (T7 phage lysate)
# T24 sequence (Q06418 41-890): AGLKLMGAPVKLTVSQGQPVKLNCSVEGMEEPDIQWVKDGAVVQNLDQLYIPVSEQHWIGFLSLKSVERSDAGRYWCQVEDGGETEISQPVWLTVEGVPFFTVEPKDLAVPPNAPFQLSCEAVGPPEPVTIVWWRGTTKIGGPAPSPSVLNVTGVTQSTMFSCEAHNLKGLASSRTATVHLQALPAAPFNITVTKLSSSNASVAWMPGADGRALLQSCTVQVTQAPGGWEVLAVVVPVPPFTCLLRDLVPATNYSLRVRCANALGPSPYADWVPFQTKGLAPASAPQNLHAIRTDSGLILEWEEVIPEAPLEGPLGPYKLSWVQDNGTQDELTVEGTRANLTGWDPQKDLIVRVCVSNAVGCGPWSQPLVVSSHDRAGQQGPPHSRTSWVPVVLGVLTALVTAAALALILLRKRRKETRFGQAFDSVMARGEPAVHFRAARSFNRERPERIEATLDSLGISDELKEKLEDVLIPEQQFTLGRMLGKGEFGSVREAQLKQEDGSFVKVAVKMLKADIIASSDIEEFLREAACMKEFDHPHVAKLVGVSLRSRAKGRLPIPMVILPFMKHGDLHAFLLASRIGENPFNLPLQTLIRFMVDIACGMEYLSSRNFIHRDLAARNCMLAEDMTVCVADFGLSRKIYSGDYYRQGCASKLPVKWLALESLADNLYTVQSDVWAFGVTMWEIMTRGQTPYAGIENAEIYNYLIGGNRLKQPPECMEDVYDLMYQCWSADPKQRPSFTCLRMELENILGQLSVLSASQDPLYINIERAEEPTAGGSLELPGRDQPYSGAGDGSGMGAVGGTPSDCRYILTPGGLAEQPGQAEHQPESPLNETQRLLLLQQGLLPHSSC
# In short: as §1
smiles,measurement,setting,value
"C#Cc1cccc(Nc2ncnc3cc(OC)c(OCCCN4CCOCC4)cc23)c1 [NRC-2694, N-(3-ethylnylphenyl)-7-methoxy-6-[3-(4-morpholinyl)propoxy]-4-quinazolinamine]",% Ctrl @ 10000 nM,ABL1 (H396P),34 % Ctrl
same,% Ctrl @ 10000 nM,ABL1,67 % Ctrl
same,% Ctrl @ 10000 nM,CAMKK2,60 % Ctrl
same,% Ctrl @ 10000 nM,CLK1,31 % Ctrl
same,% Ctrl @ 10000 nM,CSF1R,50 % Ctrl
same,% Ctrl @ 10000 nM,CSNK2A2,52 % Ctrl
same,% Ctrl @ 10000 nM,EPHB4,39 % Ctrl
same,% Ctrl @ 10000 nM,IGF1R,74 % Ctrl
same,% Ctrl @ 10000 nM,[1],81 % Ctrl
same,% Ctrl @ 10000 nM,JNK3,77 % Ctrl
same,% Ctrl @ 10000 nM,MAP4K3,52 % Ctrl
same,% Ctrl @ 10000 nM,MELK,57 % Ctrl
same,% Ctrl @ 10000 nM,MET,33 % Ctrl
same,% Ctrl @ 10000 nM,MST3,42 % Ctrl
same,% Ctrl @ 10000 nM,PLK3,97 % Ctrl
same,% Ctrl @ 10000 nM,PRKCH,83 % Ctrl
same,% Ctrl @ 10000 nM,PRKD3,7.2 % Ctrl
same,% Ctrl @ 10000 nM,RET,65 % Ctrl
same,% Ctrl @ 10000 nM,RIPK2,2.4 % Ctrl
same,% Ctrl @ 10000 nM,TIE2,76 % Ctrl
same,% Ctrl @ 10000 nM,TNIK,17 % Ctrl
same,% Ctrl @ 10000 nM,TRKB,73 % Ctrl
same,% Ctrl @ 10000 nM,TSSK1B,93 % Ctrl
same,% Ctrl @ 10000 nM,TYRO3,42 % Ctrl
